Measurements from ChEMBL document CHEMBL1201862, “PubChem BioAssay data set” (2004).
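Briefly, cells in 96-well plates were exposed to five compound concentrations for 48 h, and endpoints were estimated by linear interpolation. At the GI50, growth is halved.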 Active and inactive are the calls of the source. Rule as the data show it: active = GI50 up to about 1.1 µM and inactive = higher.

Tests used:
Experiment in all cases: inhibition of tumour cell growth, NCI panel, 48 h
[1] = system: BT-549
[2] = system: U-251
[3] = system: SR
[4] = system: PC-3
[5] = system: NCI-H226
[6] = system: MCF7
[7] = system: IGROV-1
[8] = system: SK-OV-3
[9] = system: DU-145
[10] = system: MDA-MB-435
[11] = system: K562
[12] = system: NCI-H23
[13] = system: EKVX
[14] = system: LOX IMVI
[15] = system: T47D
[16] = system: HL-60
[17] = system: M14
[18] = system: A549
[19] = system: OVCAR-3
[20] = system: HOP-92
[21] = system: SF-295
[22] = system: HCC 2998
[23] = system: RXF 393
[24] = system: SK-MEL-5
[25] = system: SNB-75
[26] = system: NCI-H522
[27] = system: SW-620
[28] = system: SK-MEL-28
[29] = system: CCRF-CEM
[30] = system: KM12
[31] = system: CAKI-1
[32] = system: SN12C
[33] = system: 786-0
[34] = system: SF-268
[35] = system: COLO 205
[36] = system: A498
[37] = system: NCI/ADR-RES
[38] = system: RPMI-8226
[39] = system: HT-29
[40] = system: MDA-N
[41] = system: SNB-19
[42] = system: UACC-62
[43] = system: OVCAR-5
[44] = system: NCI-H460
[45] = system: MOLT-4
[46] = system: SK-MEL-2
[47] = system: UACC-257
[48] = system: HOP-62
[49] = system: ACHN
[50] = system: TK-10
[51] = system: Hs-578T
[52] = system: UO-31
[53] = system: OVCAR-8
[54] = system: OVCAR-4
[55] = system: HCT-116
[56] = system: HCT-15

Measured: GI50

Cn1c(=O)c2c(nc3n2CCCC(=O)N3CC(O)CCl)n(C)c1=O (stereo unspecified)
> 100 µM: [56]
inactive: [1] > 100 µM | [2] > 100 µM | [3] 50.1 µM | [4] > 100 µM | [5] > 100 µM | [6] > 100 µM | [7] > 100 µM | [8] > 100 µM | [9] > 100 µM | [10] > 100 µM | [11] > 100 µM | [12] > 100 µM | [13] > 100 µM | [14] > 100 µM | [15] > 100 µM | [16] > 100 µM | [17] > 100 µM | [18] > 100 µM | [19] > 100 µM | [20] > 100 µM | [21] > 100 µM | [22] > 100 µM | [23] > 100 µM | [24] > 100 µM | [25] > 100 µM | [26] > 100 µM | [27] > 100 µM | [28] > 100 µM | [29] > 100 µM | [30] > 100 µM | [31] > 100 µM | [32] > 100 µM | [33] > 100 µM | [34] > 100 µM | [35] > 100 µM | [36] > 100 µM | [37] > 100 µM | [38] > 100 µM | [39] > 100 µM | [40] > 100 µM | [41] > 100 µM | [42] > 100 µM | [43] > 100 µM | [44] > 100 µM | [45] > 100 µM | [46] > 100 µM | [47] > 100 µM | [48] > 100 µM | [49] > 100 µM | [50] > 100 µM | [51] > 100 µM | [52] > 100 µM | [53] > 100 µM | [54] > 100 µM | [55] > 100 µM
